Laboratory results published in patent publication US6569904B1, “Agent for lowering endothelin levels” (Orion Corporation, priority 1998, dated 2003).

Assays:
Assay type in all cases: in vivo, postmenopausal breast cancer patients
[1] = Occurrence of thromboses and cerebrovascular accidents in three clinical adjuvant trials; conditions: for Cerebrovascular accidents (number of occurrences) / Deep vein thromboses (number of occurrences): oral toremifene 40 mg/d (1120 patients) vs oral tamoxifen 20 mg/day (1110 patients) for 3 years, serious events
Method: Occurrence of thromboses and cerebrovascular accidents
In three clinical adjuvant trials effects of oral toremifene 40 mg/d was compared to oral tamoxifen 20 mg/day for 3 years in postmenopausal breast cancer patients. The occurrence of serious deep vein thromboses and serious cerebrovascular accidents in toremifen and tamoxifen groups are summarized in Table 2.

endothelin-1 (ET-1) = experiment: Effect on endothelin-1 level in plasma of patients treated orally for one year; conditions: for Plasma level of endothelin-1, at 6 months: at 6 months of oral treatment (toremifene 40 mg/d, tamoxifen 20 mg/d, estradiol valerate 2 mg/d); for Plasma level of endothelin-1, at 6 months / Plasma level of endothelin-1, at 12 months / Plasma level of endothelin-1, before treatment: mean±SE; for Plasma level of endothelin-1, at 12 months: at 12 months of oral treatment (toremifene 40 mg/d, tamoxifen 20 mg/d, estradiol valerate 2 mg/d); for Plasma level of endothelin-1, before treatment: baseline before treatment, breast cancer patients; for Effect on endothelin-1 level in patients during the treatment (in words): oral treatment for one year
Method: Effect of toremifene on endothelin-1 level in plasma
(§1) Postmenopausal breast cancer patients were treated with 40 mg/d toremifene (Fareston™) (n=19), 20 mg/d tamoxifen (Tadex™) (n=25) or 2 mg/d estradiol valerate (Progynova™)(n=14) orally for one year. The 44 patients of the antiestrogen groups had been operated on breast cancer 6-8 weeks before the trial. Plasma samples (10 ml) were collected before and at 6 and 12 months of each regimen, and plasma levels of endothelin-1 (ET-1) and nitrite/nitrate (NOx) were measured by established methods. The data (presented as mean±SE) were analyzed by two-way analysis of variance (ANOVA) for repeated measures. When differences were indicated by ANOVA, their significances at individual timepoints were calculated by means of a t-test for independent means (between-groups comparison) or a t-test for dependent means (comparison to baseline within a single group). For determination of correlation between two variables, the Pearsson coefficient was calculated.

nitrite/nitrate (NOx) = experiment: Plasma nitrite/nitrate (NOx) level in patients treated orally for one year; conditions: mean±SE; for Plasma level of nitrite/nitrate, at 6 months: at 6 months of oral treatment; for Plasma level of nitrite/nitrate, at 12 months: at 12 months of oral treatment; for Plasma level of nitrite/nitrate, before treatment: baseline before treatment, breast cancer patients
Method: as §1

| SMILES | Cerebrovascular accidents (number of occurrences) [1] | Deep vein thromboses (number of occurrences) [1] | Vascular complications (deep vein thrombosis and cerebrovascular events), comparison in words ([1]; tamoxifen treated patients compared with toremifene treated patients) | Plasma level of endothelin-1, at 6 months (endothelin-1 (ET-1)) [ng/L] | Plasma level of endothelin-1, at 12 months (endothelin-1 (ET-1)) [ng/L] | Plasma level of endothelin-1, before treatment (endothelin-1 (ET-1)) [ng/L] | Effect on endothelin-1 level in patients during the treatment (in words) (endothelin-1 (ET-1)) | Plasma level of nitrite/nitrate, at 6 months (nitrite/nitrate (NOx)) [µmol/L] | Plasma level of nitrite/nitrate, at 12 months (nitrite/nitrate (NOx)) [µmol/L] | Plasma level of nitrite/nitrate, before treatment (nitrite/nitrate (NOx)) [µmol/L] |
| --- | --- | --- | --- | --- | --- | --- | --- | --- | --- | --- |
| CC/C(=C(\c1ccccc1)c1ccc(OCCN(C)C)cc1)c1ccccc1 [Tamoxifen, tamoxifen] | 14 | 13 | clearly more vascular complications | 3.5 ± 0.2 | 3.2 ± 0.2 | 3.5 ± 0.2 | no effect | 22.8 ± 4.0 | 20.4 ± 2.5 | 20.6 ± 2.3 |
| CN(C)CCOc1ccc(/C(=C(/CCCl)c2ccccc2)c2ccccc2)cc1 [Toremifene, toremifene] | 2 | 7 | – | 2.6 ± 0.2 | 2.6 ± 0.2 | 3.0 ± 0.2 | significantly lowered endothelin-1 level | 21.0 ± 2.5 | 21.6 ± 3.1 | 23.4 ± 4.0 |
| CCCCC(=O)O[C@H]1CC[C@H]2[C@@H]3CCc4cc(O)ccc4[C@H]3CC[C@]12C [Estrogen, estradiol valerate] | – | – | – | 2.7 ± 0.2 | 2.7 ± 0.2 | 2.8 ± 0.2 | – | 21.5 ± 3.2 | 18.5 ± 2.7 | 25.8 ± 3.7 |
